Data published in patent US20220396565A1 (Hoffmann-La Roche Inc., priority 2020, published 2022).
Structures can show the parent of a compound that is named as a salt. Where two headings read alike, the source gives them in different places.

Experiments:
[1] = tested on: Acinetobacter baumannii ATCC17978; experiment: Antimicrobial susceptibility testing: 90% growth inhibitory concentration (IC90) determination, Iso-Sensitest broth; type: cell-based
Outline: (§1)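 Growth at OD600 was monitored every 20 min for 16 h at 35±2 °C, with bacteria inoculated at ~5×10^(5) CFU/ml into Iso-Sensitest medium. Compounds were tested as 10-point twofold dilutions (e.g. 10–0.02 μM final). The 90% inhibitory concentration comes from the log-phase growth.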

[2] = tested on: Acinetobacter baumannii ATCC17961; experiment: as above; type: cell-based; conditions: Acinetobacter baumannii
Outline: as §1

[3] = 90% growth inhibitory concentration, Acinetobacter baumannii ATCC17978, Iso-Sensitest broth, read-out: ATCC 17978 IC90
[4] = ATCC17961, 90% growth inhibitory concentration, Acinetobacter baumannii ATCC17961, Iso-Sensitest broth, read-out: ATCC 17961 IC90

SMILES	IC90 [1, 3] [nM]	further results
COc1ccc(-c2cnc(C(=O)Nc3ccc(C(=O)N4CCN(C(=O)C5CCNCC5)CC4)c(C)c3)n2C)c(Cl)c1F [Example 117, 5-(2-chloro-3-fluoro-4-methoxy-phenyl)-1-methyl-N-[3-methyl-4-[4-(piperidine-4-carbonyl)piperazine-1-carbonyl]phenyl]imidazole-2-carboxamide formate]	150	
CN(C)CC(=O)N1CCN(C(=O)c2ccc(NC(=O)c3ncc(-c4ccc(OCC#N)c(F)c4F)n3C)cc2Cl)CC1 [Example 204, N-(3-chloro-4-(4-(dimethylglycyl)piperazine-1-carbonyl)phenyl)-5-(4-(cyanomethoxy)-2,3-difluorophenyl)-1-methyl-1H-imidazole-2-carboxamide formate]	40	
Cn1c(-c2ccc(OCC#N)c(F)c2F)cnc1C(=O)Nc1ccc(C(=O)N2CCC(C(=O)N3CCS(=O)(=O)CC3)CC2)c(Cl)c1 [Example 75, N-(3-chloro-4-(4-(1,1-dioxidothiomorpholine-4-carbonyl)piperidine-1-carbonyl)phenyl)-5-(4-(cyanomethoxy)-2,3-difluorophenyl)-1-methyl-1H-imidazole-2-carboxamide]	100	
Cn1c(-c2ccc(OCC#N)c(F)c2F)cnc1C(=O)Nc1ccc(C(=O)N2CCN(C(=O)C3CCNCC3)CC2)c(Cl)c1 [Example 196, N-(3-chloro-4-(4-(piperidine-4-carbonyl)piperazine-1-carbonyl)phenyl)-5-(4-(cyanomethoxy)-2,3-difluorophenyl)-1-methyl 1H-imidazole-2-carboxamide formate]	70	
Cn1c(-c2ccc(OCC#N)c(F)c2F)cnc1C(=O)Nc1ccc(C(=O)N2CCC(C(=O)N3CCOCC3)CC2)c(Cl)c1 [Example 74, N-(3-chloro-4-(4-(morpholine-4-carbonyl)piperidine-1-carbonyl)phenyl)-5-(4-(cyanomethoxy)-2,3-difluorophenyl)-1-methyl-1H-imidazole-2-carboxamide]	100	
Cn1c(-c2ccc(OCC#N)c(F)c2F)cnc1C(=O)Nc1ccc(C(=O)N2CCN(C(=O)[C@@H]3C[C@@H](O)CN3)CC2)c(Cl)c1 [Example 202, N-(3-chloro-4-(4-((2S,4R)-4-hydroxypyrrolidine-2-carbonyl)piperazine-1-carbonyl)phenyl)-5-(4-(cyanomethoxy)-2,3-difluorophenyl)-1-methyl-1H-imidazole-2-carboxamide 2,2,2-trifluoroacetate]	90	
CCc1cc(NC(=O)c2ncc(-c3ccc(OC)c(F)c3F)n2C)ccc1C(=O)N1CCC(Cc2nc(C3CCC3)no2)CC1 [Example 27, N-[4-[4-[(3-cyclobutyl-1,2,4-oxadiazol-5-yl)methyl]piperidine-1-carbonyl]-3-ethyl-phenyl]-5-(2,3-difluoro-4-methoxy-phenyl)-1-methyl-imidazole-2-carboxamide]	5700	
COc1ccc(-c2cnc(C(=O)Nc3ccc(C(=O)N4CCN(C(=O)[C@@H]5C[C@H](O)CN5)CC4)c(Cl)c3)n2C)c(Cl)c1F [Example 114, 5-(2-chloro-3-fluoro-4-methoxy-phenyl)-N-[3-chloro-4-[4-[(2S,4S)-4-hydroxypyrrolidine-2-carbonyl]piperazine-1-carbonyl]phenyl]-1-methyl-imidazole-2-carboxamide formate]	110	
CNCC(=O)N1CCN(C(=O)c2ccc(NC(=O)c3ncc(-c4ccc(OCC#N)c(F)c4F)n3C)cc2Cl)CC1 [Example 205, N-(3-chloro-4-(4-(methylglycyl)piperazine-1-carbonyl)phenyl)-5-(4-(cyanomethoxy)-2,3-difluorophenyl)-1-methyl-1H-imidazole-2-carboxamide formate]	60	
COc1ccc(-c2cnc(C(=O)Nc3ccc(C(=O)N4CCC(C(=O)N5CCN[C@@H](CO)C5)CC4)c(Cl)c3)n2C)c(Cl)c1F [Example 116, 5-(2-chloro-3-fluoro-4-methoxy-phenyl)-N-[3-chloro-4-[4-[(3R)-3-(hydroxymethyl)piperazine-1-carbonyl]piperidine-1-carbonyl]phenyl]-1-methyl-imidazole-2-carboxamide]	130	
COc1ccc(-c2cnc(C(=O)Nc3ccc(C(=O)N4CCN(C(=O)[C@H]5C[C@@H](O)CN5)CC4)c(Cl)c3)n2C)c(Cl)c1F [Example 115, 5-(2-chloro-3-fluoro-4-methoxy-phenyl)-N-[3-chloro-4-[4-[(2R,4R)-4-hydroxypyrrolidine-2-carbonyl]piperazine-1-carbonyl]phenyl]-1-methyl-imidazole-2-carboxamide formate]	140	
COc1ccc(-c2cnc(C(=O)Nc3ccc(C(=O)N4CCC(CN)CC4)c(Cl)c3)n2C)c(F)c1F [Example 16, N-[4-[4-(aminomethyl)piperidine-1-carbonyl]-3-chloro-phenyl]-5-(2,3-difluoro-4-methoxy-phenyl)-1-methyl-imidazole-2-carboxamide trifluoroacetate]	300	
COc1ccc(-c2cnc(C(=O)Nc3ccc(C(=O)N4CCN(C(=O)[C@@H]5C[C@H](O)CN5)CC4)c(Cl)c3)n2C)c(F)c1F [Example 107, N-[3-chloro-4-[4-[(2S,4S)-4-hydroxypyrrolidine-2-carbonyl]piperazine-1-carbonyl]phenyl]-5-(2,3-difluoro-4-methoxy-phenyl)-1-methyl-imidazole-2-carboxamide trifluoroacetate]	80	
Cn1c(-c2ccc(OCC#N)c(F)c2F)cnc1C(=O)Nc1ccc(C(=O)N2CCN(C(=O)[C@H]3CCCN3)CC2)c(Cl)c1 [Example 197, (R)-N-(3-chloro-4-(4-prolylpiperazine-1-carbonyl)phenyl)-5-(4-(cyanomethoxy)-2,3-difluorophenyl)-1-methyl 1H-imidazole-2-carboxamide 2,2,2-trifluoroacetate]		IC90 ([1]; Acinetobacter baumannii, ATCC17978, read-out: ATCC 17978 IC90): 70 nM
COc1ccc(-c2cnc(C(=O)Nc3ccc(C(=O)N4CCN(S(=O)(=O)C5CCNCC5)CC4)c(Cl)c3)n2C)c(F)c1F [Example 216, N-(3-chloro-4-(4-(piperidin-4-ylsulfonyl)piperazine-1-carbonyl)phenyl)-5-(2,3-difluoro-4-methoxyphenyl)-1-methyl-1H-imidazole-2-carboxamide formate]		IC90 [2, 4]: 120 nM
Cn1c(-c2ccc(OCF)c(F)c2F)cnc1C(=O)Nc1ccc(C(=O)N2CCN(C(=O)C3CNCC3O)CC2)c(Cl)c1 (stereo not drawn) [Example 148, N-[3-chloro-4-[4-(4-hydroxypyrrolidine-3-carbonyl)piperazine-1-carbonyl]phenyl]-5-[2,3-difluoro-4-(fluoromethoxy)phenyl]-1-methyl-imidazole-2-carboxamide formate]		IC90 [2, 4]: 40 nM
Cn1c(-c2ccc(OCC#N)c(F)c2F)cnc1C(=O)Nc1ccc(C(=O)N2CCN(C(=O)CN3CC(C(=O)O)C3)CC2)c(Cl)c1 [Example 212, 1-(2-(4-(2-chloro-4-(5-(4-(cyanomethoxy)-2,3-difluorophenyl)-1-methyl-1H-imidazole-2-carboxamido)benzoyl)piperazin-1-yl)-2-oxoethyl)azetidine-3-carboxylic acid 2,2,2-trifluoroacetate]		IC90 [2, 4]: 850 nM
COc1ccc(-c2cnc(C(=O)Nc3ccc(C(=O)N4CCC(NS(=O)(=O)C5CCNCC5)CC4)c(Cl)c3)n2C)c(F)c1F [Example 235, N-[3-Chloro-4-[4-(4-piperidylsulfonylamino)piperidine-1-carbonyl]phenyl]-5-(2,3-difluoro-4-methoxy-phenyl)-1-methyl-imidazole-2-carboxamide formate]		IC90 ([2]; ATCC17961, read-out: ATCC 17961 IC90): 60 nM
